Data taken from patent US7666893B2, “Method for treatment of neurodegenerative disorders” (MedDEV Inc., priority 2006, dated 2010).

Tests used:
Format in all cases: in vivo, human
[1] = test system: male MS patients with erectile dysfunction; test: Sexual function in male MS patients with erectile dysfunction; conditions: Example Six
Text: Two male MS patients, a person and a person, experienced decreased libido, decreased penile sensation, and erectile dysfunction. […] These improvements in sexual function have persisted while continuing on the treatment. […] Their ability to achieve a full erection numerous times following repeated ejaculations was restored the same day that they resumed the treatment.

[2] = test system: multiple sclerosis (MS) patients; test: Treatment of multiple sclerosis patients via transdermal patch; conditions: for outcome on MS symptoms with cyclic dosing schedule: repeated
Text: (§1) Accordingly, material suitable for transdermal application can be prepared using a 1:1000 dilution of methyl 4-imidazolecarboxylate CAS number 17325-26-7, available from Sigma-Aldrich Corporation), combined with a pluronic lecithin organogel transdermal penetration enhancing vehicle, with hydrochloric acid being added to maintain the pH of the solution that or below 3. The resultant mixture may be dried and deposited on or applied to a suitable adhesive backing to form a transdermal patch, covered with quick release paper or other layer for protection prior to use.
The following illustrative examples relate to actual practice of the invention described above in the treatment of multiple sclerosis.
A person who had been suffering from multiple sclerosis (MS) for 51 years was treated in accordance with the method of the present invention. The patient suffered from debilitating intention tremors in their hands, poor balance, garbled speech, right foot tingling and right leg weakness, left foot tingling and weakness. Within 60 minutes of applying the first dose of 0.125 mcg methyl 4-imidazolecarboxylate via transdermal patch application, the intention tremors were alleviated, but noted some waxing and waning of other symptoms throughout the first day of treatment. […] After the third consecutive day of treatment, the patient had no symptoms of MS and they were able to remain free of symptoms for the next 36 hours without applying the treatment of the present invention. After 36 hours of not administering the treatment, they reported that their MS symptoms were returning, they then applied 0.125 mcg methyl 4-imidazolecarboxylate via transdermal patch and their MS symptoms were alleviated within 30 minutes of applying the treatment. They administered 0.125 mcg methyl 4-imidazolecarboxylate per day for next 2 consecutive days and was again able to remain free of all of the MS symptoms while wearing the transdermal patch containing the treatment dose and then remained free of symptoms for the following 2 days not administering the treatment.
A person who has been suffering from multiple sclerosis (MS) for 21 years was treated in accordance with the method of the present invention. The patient suffered from left foot tingling and numbness, left hand tingling and numbness, left leg weakness, slurred speech, cognitive impairment, fatigue, facial/jaw pain, and heaviness in limbs. […] The patient remained free of all MS symptoms with the administration of 0.15 mcg methyl 4-imidazolecarboxylate per day for the next two consecutive days. The patient was able to remain free of MS symptoms for 36 hours following the two consecutive days of application of present invention without use of treatment. After 36 hours of not using the present invention treatment, the patient experienced left foot tingling. The patient then applied 0.15 mcg methyl 4-imidazolecarboxylate per day via transdermal patch for two consecutive days and all MS symptoms alleviated. The patient was able to remain free of all MS symptoms for the next 4 days without applying the present invention treatment. […] The following 5 days the patient remained free of all MS symptoms without administering treatment of present invention.
Each patient has continued to maintain such improvements in their symptoms of MS by applying 0.2 mcg methyl 4-imidazolecarboxylate via transdermal patch for one day followed by two consecutive days without administering treatment and then repeating such dosing schedule.

patients = test: Transdermal dosage range and regimen observations in patients
Protocol: As will be described in the following examples, dosages in the range from about 0.1 mcg to about 0.2 mcg per day have been found generally preferable, with some variation on a patient by patient basis. […] While the mechanism behind this is not fully understood, it is believed that the effectiveness of the periodic regimen, with a resting period of about 48 hours between applications, may be due to an associated half life period (within the body of the patient) of the material or an agent that is produced by the material.

[3] = test system: multiple sclerosis (MS) patients; test: Treatment of multiple sclerosis patients via transdermal patch; conditions: Example Three, four MS patients (2 female, 2 male), 0.2 mcg transdermal patch one day, two days off, repeated
fibromyalgia patient = test: Treatment of fibromyalgia patient via transdermal patch; conditions: Example Five
Text: as §1
A person who has been suffering from fibromyalgia for 10 years was treated in accordance with the method of the present invention. […] The patient has reported only two incidences of increased fatigue, which lasted only one day per incidence, and these incidences were preceded by very stressful life events.

[4] = test system: patient with major clinical depression; test: Treatment of patient with major clinical depression via transdermal patch; conditions: Example Seven
Protocol: A person with a family history of depression and has a personal history of major clinical depression. Hospitalized in 1975 and again in 1990 with major episodes of depression including extreme suicidal ideations. Numerous medications were tried to help stabilize their condition. Since 1990 they have been taking 25 mg to 75 mg of nortriptyline to manage their depression and reports having to increase the dose to has high as 100 mg during stressful life events.
The patient reported suffering from the following symptoms despite taking nortriptyline:
They also reported very vivid dreams and they were able to recall the details of their dreams easily. […] Their constipation and dry mouth have resolved as well. They also have reported that their hair is regaining its original pigment and that their eyebrows are coming in darker and thicker resembling their younger years.

[5] = 0.2 mcg transdermal patch one day on, two days off

Which “effect of stopping the treatment for one week” value ([1]; patient, restored the same day treatment resumed) does the source give for `COC(=O)c1cnc[nH]1` [methyl 4-imidazolecarboxylate] here?
The value was “decrease in libido and inability in achieving a full erection”.

And the “time to achieve a full erection after first ejaculation” value ([1]; two male MS patients, 0.2 mcg)?
The value was 1 to 3 min.

And the “patient-reported sexual function within three days of first administration” value ([1]; two male MS patients, 0.2 mcg (entry two))?
The value was “increased libido, full erections, increased penile sensation”.

And the “MS symptoms by the second day of treatment” value ([2]; Example One, 0.125 mcg per day, transdermal patch)?
Its value is “All MS symptoms were alleviated”.

What about the “time to alleviation of returned MS symptoms after re-applying treatment” value ([2]; Example One, 0.125 mcg transdermal patch after 36 hours without treatment) of the same molecule?
The value was no more than 30 min.

And the “outcome on MS symptoms with cyclic dosing schedule” value ([2]; Example One, 0.2 mcg one day followed by 2 consecutive days without treatment)?
Its value is “successfully alleviated all of the MS symptoms”.

And the “time to alleviation of intention tremors after first dose” value ([2]; Example One, MS patient, first dose 0.125 mcg, transdermal patch)?
Its value is no more than 60 min.

And the “time free of symptoms not administering the treatment” value ([2]; Example One, after re-application and 2 further consecutive days of 0.125 mcg per day)?
Its value is 2 days.

And the “time free of symptoms without applying the treatment” value ([2]; Example One, after third consecutive day of 0.125 mcg treatment)?
Its value is 36 h.

What about the “effect on returned left foot tingling after single application” value ([2]; Example Two, 0.15 mcg transdermal patch on fifth day without treatment) of the same molecule?
The value was “symptoms resolved immediately”.

What about the “outcome on MS symptoms with cyclic dosing schedule” value ([2]; Example Two, 0.2 mcg transdermal patch one day, 2 consecutive days without treatment) of the same molecule?
The value was “continued to remain free of all MS symptoms”.

What about the “time to alleviation of all MS symptoms after first dose” value ([2]; Example Two, MS patient, first dose 0.15 mcg, transdermal patch) of the same molecule?
The value was no more than 30 min.

What about the “time free of all MS symptoms without applying treatment” value ([2]; Example Two, after second course of 0.15 mcg per day for two consecutive days) of the same molecule?
The value was 4 days.

What about the “time free of MS symptoms without use of treatment” value ([2]; Example Two, following first dose and two consecutive days of 0.15 mcg per day) of the same molecule?
Its value is 36 h.

And the “time free of all MS symptoms without administering treatment” value ([2]; Example Two, following single 0.15 mcg application)?
Its value is 5 days.

What about the “effectiveness of periodic regimen” value (patients; approximately 0.2 mcg once every three days) of the same molecule?
The value was “especially effective for the majority of patients”.

What about the “adverse effect at high dosages” value (patients; transdermal, dosages above approximately 3.0 mcg per day) of the same molecule?
The value was “negative cognitive effects, in a form of mental haziness or sleepiness”.

And the “effect observed at low dosages” value (patients; transdermal, dosages below about 0.01 mcg per day)?
The value was “negligible effect”.

What about the “patient-reported change in MS symptoms (bladder function, fatigue, tingling and numbness, balance, cognition and memory, walking, sleep)” value [3] of the same molecule?
Its value is “improvement in their MS symptoms”.

And the “maintained outcome with cyclic dosing schedule” value (fibromyalgia patient; [5])?
The value was “remained free of pain, and improved mental clarity”.

And the “incidences of increased fatigue during treatment” value (fibromyalgia patient; each lasting one day, preceded by very stressful life events)?
Its value is “two”.

What about the “patient-reported effect within hours of first dose” value (fibromyalgia patient; person with fibromyalgia, first dose 0.2 mcg) of the same molecule?
Its value is “decreased pain, decreased fatigue and improved mental clarity”.

What about the “symptoms of depression while continuing on the treatment” value [4, 5] of the same molecule?
Its value is “remained free of all symptoms of depression”.

What about the “patient-reported effect the first day of treatment” value ([4]; person, 0.2 mcg) of the same molecule?
Its value is “increased energy”.

For `CNCCC=C1c2ccccc2CCc2ccccc21` [nortriptyline, reference compound], which patient-reported side effects ([4]; 25 mg to 75 mg (up to 100 mg) nortriptyline since 1990) is on record?
Its patient-reported side effects is “dry mouth and constipation”.
